Here are results for eight compounds from patent publication US20020032182A1, “Method of treating hypersomnia sleep disturbance or insomnia sleep disturbance that is secondary to another condition” (priority 1997, published 2002).

Entries after “also recorded” stand apart in the source; their conditions may differ. Where a name gives a salt, the structure may show the parent alone.

One data set relates to severe dysthymia. In words: Patient No. 3 treatment of severe dysthymia. Format: in vivo, human. An excerpt: Patient No. 3 was a divorced person experiencing chronic suicidal depression for about 15 years. For as long as the patient can remember, they have had episodic, mild-to-moderate mood swings. Approximately 15 years ago, their condition worsened and they were depressed almost daily. Their thoughts were slowed down, they felt intensely sad, guilty, worthless, confused, and desperate. Over a period of approximately two years they underwent therapy with a social worker and psychotherapy with a psychiatrist, with little positive results. No pharmaco-therapy was involved in either of these treatments. Initially, Patient No. 3 met with the inventor and identified a childhood source as a partial cause of their depression, low self-esteem and dysfunctional thinking. Although they appreciated the insights gained through the psychoanalysis/psychotherapy with the inventor, their depression persisted unabated. They were rejected by their girlfriend and became frighteningly suicidal. […] Within six months they developed a tolerance to the drug and it was increased to 100 mg per day with no effect. They stopped […]® and started bupropion 100 mg b.i.d and lithium 300 mg t.i.d. Bupropion is an aminoketone antidepressant, and lithium is a metal used to treat bipolar disorder. […] Their condition was desperate and life-threatening.

Data set [1] concerns pre-menstrual syndrome (PMS). To be noted: women with PMS treated with fluoxetine; cited from earlier work.
For data set [2], the system named is pre-menstrual syndrome (PMS) and major depression. The data set is described as follows: Patient No. 4 treatment of major depression and self-rating of pre-menstrual syndrome symptoms. The data set is classed as in vivo, human. As to the method: Patient No. 4 was a person who has struggled to overcome a wide variety of psychiatric symptoms, two of which are depression and pre-menstrual syndrome (PMS). After several treatments, it was determined that a combination of paroxetine 20 mg t.i.d. and lithium 300 mg t.i.d. diminished their symptoms of obsessive-compulsive disorder, depression, hypomania and PMS.
In FIGS. 6-8 the abbreviations for each symptom on the graphs may be translated as follows:
Patient No. 4's formal diagnoses were Multiple Personality Disorder, Obsessive-Compulsive Disorder, Major Depression Disorder, Alcoholism (recovering), and Pre-Menstrual Syndrome (PMS).
Set forth below in Table 1 are the research criteria set forth in the Diagnostic and Statistical Manual of Mental Disorders, Forth edition, published by the American Psychiatric Association for Pre-Menstrual Dysphoric Disorder, or Pre-Menstrual Syndrome.
They described a typical menses as follows. They were usually moderately to severely depressed for at least two days during the week before their menses. They had sudden mood swings. One moment they would be crying and the next they would be laughing wildly, or they would have sudden outbursts of anger. They were markedly tense and would fidget constantly. They tired easily and lacked energy. They could barely drag themself out of bed each morning. They craved carbohydrates and often would eat several doughnuts, whole cakes, or boxes of cookies. They slept little, and for two or three nights they would have night sweats that drenched their bed. They also experienced back cramps, bloating and pains in their joints and muscles. They had trouble concentrating and was unable to do life's simplest chores. Their PMS interfered with their ability to function. They lost interest in their favorite hobby, reading.

Data set [3] has as its system depression in the form of dysthymia. The data set is described as follows: Patient No. 1 weekly blinded component study with Beck Scale and SCL-90 Scale self-rating. Format: in vivo, human. The note with it: for patient-reported symptoms during week: component taken along with sertraline 125 mg qd. On the procedure: Patient No. 1 was a person who, after a series of psychoanalysis/psychotherapy sessions, was diagnosed as suffering from depression in the form of dysthymia. Patient No. 1 experienced a chronic low mood with markedly diminished interest and pleasure in all activities including work, eating, and sexual relations.
Initially, Patient No. 1 was treated only with the known antidepressant sertraline (sold under the registered trademark ZOLOFT®). Sertraline is a selective serotonin reuptake inhibitor. Sertraline was administered in amounts from 50 to 150 mg qd (per day); the ideal dose for this patient was ultimately determined to be 125 mg qd (per day).
Independent of the sertraline treatments, the patient began taking a vitamin and mineral supplement that included a series of components. […] As such improvement was unexpected, a study of the components of the mineral preparation was undertaken. During this study, Patient No. 1 stopped taking the composite preparation.
In this study, Patient No. 1 took one component of the preparation at a time according to a schedule of one pill a day for five days, Monday through Friday. At the end of each week, they filled out two self-rating scales that are used in the diagnosis and monitoring of depression. These scales are the Beck Scale and the SCL-90 Scale, both of which are well known in the field of psychiatry and psychotherapy. Patient No. 1 continued to take sertraline at 125 mg per day. During the study, Patient No. 1 was not informed of what they were taking.
The series of events described in the above example are more fully set forth in the graphs in FIGS. 1 and 2. FIG. 1 is a bar graph displaying the scores on the Beck Scale, a self-rating scale for depression, at the end of each weekly treatment.
FIG. 2 is a bar graph of the total score on the SCL-90 Scale. The SCL-90 is composed of 90 questions. It is designed to measure symptoms of somatization, obsessive-compulsive behavior, interpersonal sensitivity, depression, anxiety, hostility, phobic anxiety, paranoid ideation, and psychoticism. It is noted that the grand total of scores on each Friday closely parallels the results of the Beck Scale.

The next data set has as its system dysthymia. In words: Patient No. 2 weekly component study with Beck Scale and SCL-90 Scale. The data set is classed as in vivo, human. As to the method:
Patient No. 2 was a single person. They are the child of Patient No. 1. They complained of weight gain, hyperphagia, hypersomnia, loss of interest in sex, irritability and an inability to concentrate. They stated that they had been seeing psychotherapists since they were […], but had no success in dealing with their depression. They were also diagnosed as having dysthymia.
They had taken sertraline in the amount of 50 mg qd with little help. This dosage was increased to 100 mg qd which proceeded for a period of five weeks. […] They were not as weepy and their outlook was less negative. Their interest in sex was increased. Their appetite remained the same.
Patient No. 2 then began a similar study as that described above for Patient No. 1. For the first week, they took one vitamin C tablet daily along with 100 mg of sertraline. Their depression appeared to worsen as reflected by their grand total Beck score of +12 and their SCL-90 of +4 as more fully portrayed on the FIG. 4.
For Patient No. 2, FIG. 4 presents Patient No. 2's Beck Scale total scores, and FIG. 5 presents a graph of the four subscales of somatization, obsessive-compulsive, depression, and anxiety on the SCL-90 Scale.

A further data set is described as follows: Plasma chromium level. Format: in vivo, human. On the procedure:
Most preferred dosage ranges of chromium are those doses sufficient to deliver from about 4.5 to about 6 μg of chromium per kilogram (kg) of body weight. This dosage range is generally several fold greater than that contained in most commercially available multi-vitamin and mineral preparations. This amount results in a plasma chromium level between 0.9 μg/liter to 2.1 μg/liter. The plasma level will vary depending on the level of exercise, i.e., the more one exercises, the more chromium is required to maintain plasma levels.
Commercially available tubes for the collection of blood can contain significant amounts of chromium. To avoid contamination, plasma levels of chromium should be determined from blood collected in heparinized or EDTA tubes.

For another data set, the system named is alcohol craving. In words: Patient No. 1 alcohol craving while taking chromium picolinate alone. The data set is classed as in vivo, human. The source says: During the later stages of the study described above, when Patient No. 1 was taking chromium picolinate alone, they also noticed a change in their ability to tolerate alcohol. Both of their parents were alcoholics so they guarded carefully against this outcome by drinking infrequently.
Despite this effort, […] often experienced intense cravings for alcohol. Prior to […] treatment with chromium, when […] consumed alcohol, […] could only drink it by gulping it. […] experienced rapid intoxication, unpleasant feelings, and a severe hangover the next day. […] […] also observed that […] could drink in moderation, without having a severe hangover the next day.

Data set [4] concerns pre-menstrual syndrome (PMS). In words: Patient No. 2 pre-menstrual syndrome observation. Format: in vivo, human. To be noted: chromium 200 μg per day. On the procedure:
They said that they had less carbohydrate craving during the week before, that they were less irritable, that their dysphoria was relieved, and that their usual cramps were non-existent. Thus, an aspect of the present invention includes the treatment of pre-menstrual syndrome (PMS), or dysmenorrhea (problematic and/or painful menses), comprising administering chromium in a preferred dose of 200 μg per day to a patient in need thereof.

The subject of data set [5] is depression in the form of dysthymia. The data set is described as follows: Patient No. 1 weekly blinded component study with Beck Scale and SCL-90 Scale self-rating. The data set is classed as in vivo, human.
Where [6] appears, read: sertraline only, 50 to 150 mg qd.
[7] abbreviates: sertraline 100 mg with one vitamin C tablet daily, first week.

For the compound `CN(C)CCC=C1c2ccccc2CCc2ccccc21` [ELAVIL, amitriptyline HCl], the results for the effect on depression entry in the data set on severe dysthymia (50 mg per day) and in the data set on severe dysthymia (increased to 100 mg per day after tolerance) were “helped them sleep” and “no effect”, respectively.

As to `CC(NC(C)(C)C)C(=O)c1cccc(Cl)c1` (centres unmarked) [bupropion], the “adverse effect leading to discontinuation” value in the data set with severe dysthymia (bupropion 100 mg b.i.d. with lithium 300 mg t.i.d.) is “developed involuntary muscle twitches”.

With `[Cr]` [chromium], the “time to relief of symptoms” value in the data set with severe dysthymia (chromium picolinate 200 μg b.i.d. with sertraline 100 mg qd) was “relief of symptoms within four to five days”.

As for `CNCCC(Oc1ccc(C(F)(F)F)cc1)c1ccccc1` (centres unmarked) [fluoxetine], the “women suffering from PMS without a positive response” value in data set [1] is on record as about 40%.

Take `Fc1ccc([C@@H]2CCNC[C@H]2COc2ccc3c(c2)OCO3)cc1` [paroxetine]: the “change in severity of PMS symptoms” value in data set [2] (paroxetine) is listed as “reduced the severity of their symptoms of PMS from severe to moderately severe”. Also, in data set [2] (paroxetine 20 mg t.i.d. and lithium 300 mg t.i.d.), the “patient rating of PMS” value was “moderate to severe and barely tolerable”. Further, the depression entry in data set [2] (resumed lithium 300 mg t.i.d. and paroxetine 40 mg per day) was “their depression was refractory”.

`[Se]` [selenium]: the “patient-reported symptoms during week” value in data set [3] is recorded as “felt agitated”.

With `CN[C@H]1CC[C@@H](c2ccc(Cl)c(Cl)c2)c2ccccc21` [sertraline, reference compound], the “total Beck score” value in [3] (sertraline 125 mg each day for five days with vitamin C placebo) was “+10”. For the same compound, the “symptoms in week prior to study” value in [3] (sertraline 125 mg qd alone) is “loss of energy, disturbed sleep, and awaking tired”. Moreover, in data set [3] (setting [6]), the “relief of symptoms of dysthymia” value was “provided some relief of the symptoms of dysthymia”; the side effects entry is “made the patient sluggish in their daily activities and made their thinking cloudy, or fuzzy”. In addition, the effect on depression result with dysthymia (sertraline 50 mg qd) is listed as “little help”. The effect on depression result in the data set on dysthymia (sertraline 100 mg qd for five weeks) is on record as “still symptomatic of depression, but felt better”. For the same compound, in the data set on dysthymia (setting [7]), the SCL-90 score entry is given as “+4” and the “grand total Beck score” value is listed as “+12”.

On to chromium picolinate, for which, in data set [3] (200 μg chromium from chromium picolinate taken late in the day), the “potential adverse side effect” value is on record as “their sleep was disturbed”. Also, the “patient-reported symptoms during week” value is “dramatic, certain and immediate relief of symptoms” in [3]; “their appetite was less” with dysthymia (component taken along with sertraline 100 mg per day). The “total Beck score at the end of the week” value in [3] (one pill of component a day for five days along with sertraline 125 mg qd (chromium 200 μg per day)) came out at 0. Further, the plasma chromium level in “Plasma chromium level” (Patient No. 1, 400 μg chromium per day as chromium picolinate, sertraline discontinued) is 0.9 µg/L. Further, the plasma chromium in the data set “Plasma chromium level” (Patient No. 2, four days after resuming chromium picolinate 200 μg per day) is 0.8 µg/L. Besides, the alcohol cravings entry in the data set with alcohol craving is given as “significantly diminished alcohol cravings”. Further, the SCL-90 score entry with dysthymia (200 μg chromium per day with sertraline 100 mg per day, second week) is given as “definite improvement”. In addition, the “response after resuming treatment” value in the data set with dysthymia (chromium picolinate 200 μg per day) was “Within two days they felt better and had no symptoms”. For the same compound, the “Beck Scale estimated via telephone interview” value in the data set on dysthymia (resumed chromium picolinate 200 μg per day, sertraline continued) is recorded as “+2”. For the same compound, the “pre-menstrual syndrome / menses symptoms” value in data set [4] is “their menses was less problematic”. Moreover, in the data set on severe dysthymia (chromium 200 μg twice daily, 400 μg per day), the overall response entry was “marked improvement”. The “signs or symptoms of PMS” value in [2] (chromium 200 μg b.i.d. with paroxetine 20 mg t.i.d. and lithium 300 mg t.i.d.) was “completely without signs or symptoms of PMS, except for breast swelling”. In addition, in data set [5] (400 μg chromium per day (200 μg b.i.d.), sertraline discontinued), the “patient-reported condition on chromium alone” value is reported as “their sleep was much improved; also recorded: felt the best they had felt in a decade”. Further, the “time to improvement after dose increase” value in [5] (crisis period at work, 200 μg chromium t.i.d.) was “Within an hour, they noticed immediate improvement”.
